The values that follow come from patent US20110053947A1, “Arylchalcogenoarylalkyl-substituted imidazolidine-2,4-diones, process for preparation thereof, medicaments comprising these compounds and use thereof” (SANOFI-AVENTIS, priority 2008, published 2011).

For test [1], the target named is T1, cannabinoid CB1 receptor (CB1) (Mus musculus, UniProt P47746).
T1 construct: from tissue; host or cells: whole animal (female NMRI mice)
The test is described as follows: Antagonization of CB1-mediated hypothermia. The class given is in vivo. Conditions: female NMRI mice; 1.25 mg/kg intraperitoneally; within 30 min. As for the experimental part: “Antagonization of CB 1-mediated Hypothermia”
The test is used to measure the potency of cannabinoid CB1 receptor (CB1) antagonists. What is measured is the extent to which the CB1 antagonists to be tested are capable of preventing or of antagonizing hypothermia induced by a CB1 agonist.
Female NMRI mice, 25-35 g in weight, are used. The mice are accustomed to the housing conditions for at least one week.
At time 0 min, the animals are treated orally, intravenously or intraperitoneally with the CB1 antagonist to be tested. 30 min later, the CB1 agonist CP55.940, 1.25 mg/kg, is administered to the mice intraperitoneally. This brings about a fall in the body temperature by 5-6° C. within 30 min. The body temperature is measured rectally for the first time 30 min before the test substance administration and then every 30 min after this administration, if appropriate immediately before a substance administration, over 4 hours.
The potency of the test substances is reported as the percentage decrease in the area under the temperature-time curve which is formed firstly by the average basal temperature, and secondly by the temperature-time curve, of the animals treated exclusively with the CB1 antagonist.

Test [2] addresses T2, cannabinoid 1 receptor (hCB1R) (Homo sapiens, UniProt P21554).
T2 construct: expressed in transfected cells; host or cells: HEK293
The test is described as follows: In vitro functional assay with recombinant cells (FLIPR), CB1. It is filed as cell-based. To be noted: intracellular Ca2+ change after reference agonist, 20 min preincubation. As for the experimental part:
(§1) In vitro functional assays with recombinant cells:
(§2) Function-testing assays were performed by means of the FLIPR technique (“Fluorometric Imaging Plate Reader”, Molecular Devices Corp.).
(§3) To this end, ligand-induced changes in the intracellular concentration of Ca^2+ in recombinant HEK293 cells, which expressed both a cannabinoid receptor (CB1 or CB2) and G-protein Galphal6, were determined. For the studies, cells were sown into 96-well microtiter plates (60 000 cells/well) and left to grow overnight. The medium was removed and the cells were incubated in buffer which contained the fluorescent dye Fluo-4. After this loading with dye, the cells were washed, test substance was added dissolved in buffer, the mixture was incubated for 20 minutes, a known cannabinoid receptor agonist as a reference agonist was added in buffer and, finally, the changes in the intracellular Ca^2+ concentration were measured in the FLIPR unit.
Results were presented as the percentage change relative to the control (0%: analogous experiment without test substance and without reference agonist, i.e. only with buffer; 100%: analogous experiment without test substance, but with reference agonist in excess), and used to calculate dose/action curves, and IC50 values were determined.
The values of the functional assay compared to the cannabinoid 1 receptor including illustrative selectivities compared to the cannabinoid 2 receptor can be taken from table 1 which follows.

For test [3], the target named is T3, cannabinoid 2 receptor (hCB2R) (Homo sapiens, UniProt P34972).
T3 construct: expressed in transfected cells; host or cells: HEK293
The test is described as follows: In vitro functional assay with recombinant cells (FLIPR), CB2. The class given is cell-based. As for the experimental part: as §1, §2, §3

Test [4] has as its target T4, CHO-K1/cannabinoid CB1 (hCB1R) (Homo sapiens, UniProt P21554).
T4 construct: expressed in transfected cells; host or cells: CHO-K1
The test is described as follows: Binding to the CB1 receptor ([3H]-SR141716A displacement). As for the experimental part: Binding to the CB 1 Receptor:
Test compounds: The compounds (3 μl, 10 mM, 100% DMSO), pipetted into 96-well PP microtiter plates, were diluted with 27 μl of 100% DMSO (dimethyl sulfoxide). Proceeding from this solution, further 3-fold dilution steps were undertaken by transferring 10 μl in each case to a new PP microtiter plate and adding a further 20 μl of 100% DMSO. In each case 6 μA of these solutions were transferred into new 96-well PP microtiter plates and made up with 144 μl of assay buffer. The end concentrations ranged from 10 μM to 0.005 μM. Negative control: AM 251, dissolved in assay buffer with 1% DMSO, was added to the dilution series in the microtiter plates as a control. The end concentration was 1 μM. Blank control: assay buffer with 1% DMSO was added to the dilution series of the microtiter plates as a blank control.
Summary of the Assay Parameters:
The values were calculated using the corrected raw data.
The values reported were obtained as average values of a double determination. The IC50 values were calculated from the measurements with the program Xlfit, formula 205. Ki values were obtained from the IC50 and Kd values utilizing the Cheng-Prusoff equation: […]
Literature: Cheng, Y.-C., and Prusoff, W. H. (1973) Biochem. Pharmacol 22, 3099-3108 Results: Ki values of example compounds; Table 2: […]

[5] abbreviates: hCB1R: FLIPR, IC50, recombinant HEK293 cells expressing CB1 and G-protein.
Setting [6] is: recombinant HEK293 cells expressing CB2 and G-protein, intracellular Ca2+ change after reference agonist, 20 min preincubation, read-out: hCB2R: FLIPR, IC50.
[7] abbreviates: recombinant HEK293 cells expressing CB1 and G-protein, read-out: hCB1R: FLIPR, IC50.

Where two headings read alike, the source gives them in different places. Bounds are passed on as bounds.

T2 sequence (P21554 whole entry): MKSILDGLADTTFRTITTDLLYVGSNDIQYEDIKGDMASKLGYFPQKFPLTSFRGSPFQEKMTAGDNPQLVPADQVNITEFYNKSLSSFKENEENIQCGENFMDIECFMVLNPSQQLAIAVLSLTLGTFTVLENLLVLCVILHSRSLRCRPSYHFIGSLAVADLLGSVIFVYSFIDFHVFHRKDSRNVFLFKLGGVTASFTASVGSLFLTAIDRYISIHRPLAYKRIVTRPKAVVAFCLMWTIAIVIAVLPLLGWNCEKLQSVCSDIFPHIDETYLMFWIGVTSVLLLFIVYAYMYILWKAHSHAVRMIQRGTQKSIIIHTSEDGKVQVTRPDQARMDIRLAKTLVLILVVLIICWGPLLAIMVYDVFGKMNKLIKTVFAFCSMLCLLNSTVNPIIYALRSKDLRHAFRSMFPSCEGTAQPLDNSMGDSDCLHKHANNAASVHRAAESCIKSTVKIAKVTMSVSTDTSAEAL
T3 sequence (P34972 whole entry): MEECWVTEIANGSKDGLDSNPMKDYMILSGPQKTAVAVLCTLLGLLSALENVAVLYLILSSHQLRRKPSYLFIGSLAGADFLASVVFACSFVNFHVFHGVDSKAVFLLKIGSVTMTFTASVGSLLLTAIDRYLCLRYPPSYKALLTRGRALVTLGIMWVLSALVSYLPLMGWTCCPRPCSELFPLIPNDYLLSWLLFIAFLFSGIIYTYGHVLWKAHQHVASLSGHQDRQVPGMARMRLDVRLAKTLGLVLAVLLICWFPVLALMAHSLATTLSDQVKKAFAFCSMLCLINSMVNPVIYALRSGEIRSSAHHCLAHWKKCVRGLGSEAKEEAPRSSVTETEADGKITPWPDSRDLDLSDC
T4 sequence (P21554 whole entry): as the sequence (P21554 whole entry) above
T1 sequence (P47746 whole entry): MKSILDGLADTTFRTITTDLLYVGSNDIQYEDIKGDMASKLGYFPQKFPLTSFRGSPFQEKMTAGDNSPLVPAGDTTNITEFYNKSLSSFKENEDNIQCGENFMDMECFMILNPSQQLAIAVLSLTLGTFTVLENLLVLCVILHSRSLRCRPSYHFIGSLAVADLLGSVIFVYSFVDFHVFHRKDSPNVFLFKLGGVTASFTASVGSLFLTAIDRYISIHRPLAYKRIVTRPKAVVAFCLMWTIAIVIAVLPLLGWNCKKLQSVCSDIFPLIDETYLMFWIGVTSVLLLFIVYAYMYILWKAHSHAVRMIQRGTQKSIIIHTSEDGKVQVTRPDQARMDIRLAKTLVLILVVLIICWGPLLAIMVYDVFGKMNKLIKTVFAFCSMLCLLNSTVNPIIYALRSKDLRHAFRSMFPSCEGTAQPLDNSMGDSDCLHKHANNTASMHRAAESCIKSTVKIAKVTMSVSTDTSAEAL

Turning to `CCCCCCC(C)(C)c1ccc([C@@H]2C[C@H](O)CC[C@H]2CCCO)c(O)c1` [CP55.940], the “fall in the body temperature” value in test [1] is 5-6 °C.
`COC(=O)c1ccc(NC(=O)Nc2ccccc2CN2C(=O)N(c3ccc(C#N)c(C(F)(F)F)c3)C(=O)C2(C)C)cc1` [Example 3, methyl 4-(3-{2-[3-(4-cyano-3-trifluoromethylphenyl)-5,5-dimethyl-2,4-dioxoimidazolidin-1-ylmethyl]phenyl}ureido)benzoate]: the IC50 in test [2] (setting [5]) is 0.019 µM; in test [3] (setting [6]) it was over 10 µM. For the same compound, in test [4], the Ki stood at 0.011 µM.
In the case of `CC1(C)C(=O)N(c2ccc(C#N)c(C(F)(F)F)c2)C(=O)N1Cc1ccccc1NC(=O)Nc1ccc(S(N)(=O)=O)cc1` [Example 1, 4-(3-{2-[3-(4-Cyano-3-trifluoromethylphenyl)-5,5-dimethyl-2,4-dioxo-imidazolidin-1-ylmethyl]phenyl}ureido)benzenesulfonamide], the IC50 in test [2] (setting [7]) was 0.024 µM; in test [3], over 10 µM. The Ki in test [4] ([3H]-SR141716A 0.5 nM, Ki from IC50 and Kd by Cheng-Prusoff, average of double determination, read-out: hCB1R, Bindung Ki) came out at 0.02 µM.
As for `CC1(C)C(=O)N(c2ccc(C#N)c(C(F)(F)F)c2)C(=O)N1Cc1ccccc1NC(=O)Nc1ccc(S(=O)(=O)O)cc1` [Example 2, 4-(3-{2-[3-(4-cyano-3-trifluoromethylphenyl)-5,5-dimethyl-2,4-dioxoimidazolidin-1-ylmethyl]phenyl}ureido)benzenesulfonic acid], the IC50 in test [2] (setting [7]) was 0.22 µM; in test [3] (setting [6]), over 10 µM.
On to `CC1(C)C(=O)N(c2ccc(C#N)c(C(F)(F)F)c2)C(=O)N1Cc1ccccc1NC(=O)Nc1cccc(C#N)c1` [Example 8, 1-(3-cyanophenyl)-3-{2-[3-(4-cyano-3-trifluoromethylphenyl)-5,5-dimethyl-2,4-dioxoimidazolidin-1-ylmethyl]phenyl}urea], for which the IC50 in test [2] (setting [5]) was 0.035 µM; in test [3] (setting [6]) it was over 10 µM.
For the compound `CC1(C)C(=O)N(c2ccc(C#N)c(C(F)(F)F)c2)C(=O)N1Cc1ccccc1NC(=O)Nc1ccc(C(=O)O)cc1` [Example 4, 4-(3-{2-[3-(4-Cyano-3-trifluoromethylphenyl)-5,5-dimethyl-2,4-dioxo-imidazolidin-1-ylmethyl]phenyl}ureido)benzoic acid], the IC50 was 0.109 µM in test [2] (setting [7]) and over 10 µM in test [3] (setting [6]).
